Measurements taken from patent US12054495B2, “Substituted macrocyclic compounds and related methods of treatment” (Alkermes, Inc., priority 2019, dated 2024).

Molecular target: T1, human orexin-2 receptor (OX2R) (Homo sapiens, UniProt O43614)
T1 construct: expressed in transfected cells
T1 sequence (O43614 1-444): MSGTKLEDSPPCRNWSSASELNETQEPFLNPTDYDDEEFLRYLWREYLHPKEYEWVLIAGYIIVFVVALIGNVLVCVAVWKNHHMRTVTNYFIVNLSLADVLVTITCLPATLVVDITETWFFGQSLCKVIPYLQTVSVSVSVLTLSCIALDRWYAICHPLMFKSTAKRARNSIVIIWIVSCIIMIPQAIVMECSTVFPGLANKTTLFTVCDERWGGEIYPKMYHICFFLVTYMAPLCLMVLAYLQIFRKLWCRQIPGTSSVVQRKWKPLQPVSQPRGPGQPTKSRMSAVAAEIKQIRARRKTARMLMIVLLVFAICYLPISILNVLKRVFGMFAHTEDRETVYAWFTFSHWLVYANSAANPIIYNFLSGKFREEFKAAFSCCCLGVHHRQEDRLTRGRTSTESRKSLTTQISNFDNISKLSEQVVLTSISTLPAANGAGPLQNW
Assay: Human OX2R IP1 assay
Type: cell-based
Settings: T-Rex CHO cells stably overexpressing human OX2R, IP1 accumulation, 1 hr at 37 degrees C; mean EC50; ∧ = racemic mixture
Method in brief: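 Doxycycline-induced T-Rex CHO cells stably expressing human OX2R treated with compound 1 hr at 37 °C in LiCl-containing buffer, pH 7.4. IP1 accumulation quantified by HTRF competitive immunoassay; EC50 reported as mean ± S.E.M.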

| SMILES | EC50 |
| --- | --- |
| CS(=O)(=O)N[C@@H]1CCCN2C(=O)COc3cccc(F)c3[C@H]3CC[C@H](CC3)OC[C@H]12 (racemic) [Compound 49] | < 100 nM |
| COC(=O)N1CCC[C@H](NS(C)(=O)=O)[C@@H]1CO[C@H]1CC[C@@H](c2ccccc2)CC1 [methyl (2R,3S)-3-((methylsulfonyl)amino)-2-(((cis-4-phenylcyclohexyl)oxy)methyl)-piperidine-1-carboxylate, reference compound] | < 100 nM |
